Laboratory results from patent publication EP0309566B1, “STLV-III-RELATED POLYPEPTIDES, DIAGNOSTIC SYSTEMS AND ASSAY METHODS” (JOHNSON AND JOHNSON, priority 1987, dated 1994).

Columns and labels:
antibodies to HIV-1 [1] = assay: Competition ELISA, formula (I) peptide as solid phase antigen (Example 4A); format: binding, human
Protocol: (§1) • (1) coat ELISA plate with peptide - 1ug/50ul/well in 0.1M NaHCO₃, pH 9; • (2) let plates dry overnight uncovered at 37°C; then wash with PBS; • (3) block plates with 300ul/well of blocking buffer (5% NCS-PBS) for 2 hrs. at 37°C; • (4) shake out blocking buffer and drain well; • (5) add 50ul/well test antiserum (first antibody) for 30 to 120 minutes at 37°C. (If the antiserum is to be diluted, use T-wash.) Dilutions of 1:2 to 1:100 have been used; • (6) shake out test antisera and wash plate six times with PBS-Tween20; • (7) add 100ul/well of labeled specific binding agent in the form of a enzyme-labeled second antibody diluted 1:4000 with T-wash. Maintain 30 to 120 minutes at 37°C; • (8) shake out any unreacted second antibody and wash plate six times with PBS-Tween20; • (9) add 100ul/well OPD substrate (or 5ul ABTS solution) for 20 minutes at RT; • (10) add 50ul/well of 4N H₂SO₄ to stop OPD reaction (or 100ul/well of 1% SDS for ABTS reaction); • (11) read plate on an MR 500 Microplate ELISA plate reader. (490nm for OPD or 405 nm for ABTS).

HIV-1 antibodies [2] = assay: ELISA of serum panels: E8 assay (peptide (II) as solid phase antigen, Procedure #1) compared with commercial viral lysate kits; format: binding, human; parameters: key: +: antibody-positive; antibody-negative; conditions: E8 absorbance cutoff 0.104
Protocol: as §1, with “ABTS). […]” for “ABTS).”
(§2) The ELISA kits described in Example 4A made with peptide (II) were evaluated against a panel of sera comprising sera from normal subjects, patients with disorders or diseases unrelated to AIDS, known AIDS patients, known ARC patients, and patients whose diagnosis is unknown but who are antibody-positive for […] antibodies by commercial tests or by Western blot assay. […]

antibodies to HIV-1 [3] = assay: E8 peptide competition (blocking) assay: serum mixed with peptide (II), peptide (II) as solid phase antigen; format: binding, human; conditions: last seven samples of Table 7 (antibody positive sera)
Protocol: Presented in Table 7 below are data relating to the assay of various patient sera. In addition to the usual assay with peptide (II) as described in Example 4-Procedure A, each serum was assayed against peptide (II) after mixing the serum sample with an effective blocking amount of the peptide (II). Also included in the Table are the results of assaying each sample with commercially available kits.
Furthermore, even samples incorrectly identified as positive by the E8 assay are correctly identified as negative by the E8 peptide competition assay. […] The last seven samples assayed as shown in Table 7 are positive for antibody by both the E8 assay and commercially available assays (with the exception of two false negatives using the Abbott kit) and by the more tedious and time consuming Western blot assay.

HIV-1 antibodies [4] = assay: ELISA of serum panels: E8 assay (peptide (II) as solid phase antigen, Procedure #1) compared with commercial viral lysate kits; format: binding, human; parameters: key: (+)=False Positives; conditions: 6 samples; NPC/NON-AIDS
Protocol: as §1, with “(490nm for OPD or 405 nm for ABTS).” left out
as §2

HIV-1 antibodies [5] = assay: as above; format: binding, human; conditions: 200 normal sera; S.D. 0.017
Protocol: as §1, with “(490nm for OPD or 405 nm for ABTS).” left out
as §2

HIV-1 antibodies [6] = assay: as above; format: binding, human; parameters: key: (-) = False Negatives
Protocol: as §1, with “ABTS). […]” for “ABTS).”
as §2

antibodies against HIV-2 = assay: ELISA with STLV-III polypeptides p80 and p81, alone and in combination; format: binding, human; conditions: two sera containing high titers of antibodies against HIV-2, diluted 1:10; 490nm
Protocol: Preliminary studies using two sera containing high titers of antibodies against HIV-2 were performed by ELISA using each of p80 and p81 alone and in combination. One hundred microliters (ul) of 0.01M NaHCO₃, pH 9.6, containing 1 microgram (ug) of either p80 or p81 or a combination (admixture) of 1 ug of p80 and 1 ug of p81 were admixed into the wells of Immunolon II microtiter plates (Dynatech, Alexandria, VA). The plates were then maintained for about 16 hours at 4 degrees C to permit the polypeptides to adsorb onto (coat) the walls of the wells. After removing the polypeptide coating solution by shaking, 300 ul of PBS containing 1% bovine serum albumin (BSA), 5mM benzamidine, 10 kilounits Aprotinin, 10ug/ml Trypsin Inhibitor, 10mM EACA, 0.5mM PMSF, 2mM EDTA and 10% glycerol were admixed into each well to block excess protein binding sites. […]
Two hundred ul of OPD substrate were then admixed into each well to form a developing-reaction admixture. After maintaining the developing-reaction admixture for 30 minutes at about 20 degrees C, 50 ul of 4N H₂SO₄ were admixed into each well to stop the developing-reaction, and the resulting solutions were assayed for absorbance at 490nm using a microtiter plate reader.

24 sera = assay: Comparison of peptide p80 based and peptide p81 based ELISA, 24 sera; format: binding
Source text: The absorbance values obtained for each of 24 sera in a peptide p80 based ELISA were divided by those obtained in a peptide p81 based ELISA. The resulting absorbance value ratios are shown in ranked order in Table 14.

antibodies to HIV-1 [7] = assay: ELISA with peptides (III) and (IV), AIDS/ARC patient sera (Procedure 1); format: binding, human
Protocol: as §1
Additional AIDS/ARC patient sera were assayed with ELISA assays employing the two highly reactive peptides of formulas (III) and (IV) (Example IV-Procedure 1).

antibodies to HIV-1 [8] = assay: Competition ELISA, admixed formula (III) and (IV) peptides as solid phase antigen (Example 4A); format: binding, human
Protocol: as §1
Further evidence that more than one epitope is present in formula (III) and (IV) peptides can be deduced from absorbance values obtained from competition studies, the results of an example of which are shown in Table 11. In this study, admixed formula (III) and (IV) peptides were applied to a microtiter plate as the immobilized, solid phase antigen and an ELISA assay (Example 4A) was performed under five different conditions: without competition, or competition with excess formula (III) peptide, formula (IV) peptide, an admixture of both peptides [(III)+(IV)], or with a heterologous peptide. The competition was performed by adding the appropriate peptide(s) to the diluted serum just before adding the serum sample to the microtiter well.

For CSGKLIC [(I)], the “absorbance with competing peptide” value (antibodies to HIV-1 [1]; sample 013, unblocked 1.177) was 0.038 and the “absorbance with competing peptide” value (antibodies to HIV-1 [1]; sample 014, unblocked 0.383) was 0.050.

With “IWGCSGKLICTTAVP [peptide (II), solid phase antigen of the "E8" assay]” the Assay result (HIV-1 antibodies [2]; 1 sample, Normal, Sample ID 749) was “-”, the Assay result (HIV-1 antibodies [2]; 1 sample, Normal, Sample ID 2846) was “+” and the Assay result (HIV-1 antibodies [2]; 198 samples, Diagnosis Normal) was “-”. For the same substance, the “reactivity of sera with peptide (II) as solid phase antigen after mixing each serum with peptide (II)” value (antibodies to HIV-1 [3]) was “effectively blocked”, the Assay result (HIV-1 antibodies [4]) was “(+)” and the “Mean Absorbance of Normals” value (HIV-1 antibodies [5]) was 0.016. For the same substance, the Assay result (HIV-1 antibodies [6]; 1 sample, AIDS, Sample I.D. 653) was “(-)”, the Assay result (HIV-1 antibodies [6]; 2 samples, AIDS, Sample I.D. 533,3621) was “(-)” and the Assay result (HIV-1 antibodies [6]; 2 samples, ARC, Sample I.D. 512,529) was “(-)”.

For AWCAFRQVCHTTVPWPNAS [p81], the absorbance values (antibodies against HIV-2) was “about 0.4”, the absorbance value (24 sera; Serum No. 3541) was 0.025 and the absorbance value (24 sera; Serum No. 3616) was 0.047. For the same substance, the absorbance value (24 sera; Serum No. 3743) was 0.040, the absorbance value (24 sera; Serum No. 3923) was 0.067 and the absorbance value (24 sera; Serum No. 3942) was 0.051. It also gave an absorbance value (24 sera; Serum No. 5160) of 0.236, an absorbance value (24 sera; Serum No. 5182) of 0.102 and an absorbance value (24 sera; Serum No. 5727) of 0.563. It also gave an absorbance value (24 sera; Serum No. 5740) of 0.043, an absorbance value (24 sera; Serum No. 6598) of 0.205 and an absorbance value (24 sera; Serum No. 6599) of 0.232. For the same substance, the absorbance value (24 sera; Serum No. 6600) was 0.306, the absorbance value (24 sera; Serum No. 6601) was 0.138 and the absorbance value (24 sera; Serum No. 6602) was 0.001. The absorbance value (24 sera; Serum No. 6603) was 0.421, the absorbance value (24 sera; Serum No. 6604) was 0.400 and the absorbance value (24 sera; Serum No. 6631) was 0.285. It also gave an absorbance value (24 sera; Serum No. 6650) of 0.034, an absorbance value (24 sera; Serum No. 6661) of 0.160 and an absorbance value (24 sera; Serum No. 6665) of 0.053. It also gave an absorbance value (24 sera; Serum No. 6674) of 0.258, an absorbance value (24 sera; Serum No. 6683) of 0.489 and an absorbance value (24 sera; Serum No. 6698) of 0.022. It also gave an absorbance value (24 sera; Serum No. 6877) of 0.008.

With IWGCSGKLICTTAVPWNAS [peptide (III)] the absorbance values (antibodies to HIV-1 [7]; serum sample 0509 (group B)) was 0.403, the absorbance values (antibodies to HIV-1 [7]; serum sample 0649 (group A)) was 1.756 and the absorbance values (antibodies to HIV-1 [7]; serum sample 0653 (group B)) was 0.111. The absorbance values (antibodies to HIV-1 [7]; serum sample 0662 (group B)) was 0.301, the absorbance values (antibodies to HIV-1 [7]; serum sample 3362 (group A)) was 0.503 and the absorbance values (antibodies to HIV-1 [7]; serum sample 3411 (group C)) was >2.00. The absorbance values (antibodies to HIV-1 [7]; serum sample 3412 (group A)) was >2.00, the absorbance values (antibodies to HIV-1 [7]; serum sample 3413 (group C)) was >2.00 and the absorbance values (antibodies to HIV-1 [7]; serum sample 3414 (group C)) was 1.453. For the same substance, the absorbance values (antibodies to HIV-1 [7]; serum sample 3416 (group C)) was 1.914, the absorbance values (antibodies to HIV-1 [7]; serum sample 3456 (group C)) was 1.670 and the absorbance values (antibodies to HIV-1 [7]; serum sample 3555 (group B)) was 0.428. For the same substance, the absorbance values (antibodies to HIV-1 [7]; serum sample 3575 (group B)) was 0.350, the absorbance values (antibodies to HIV-1 [7]; serum sample 3666 (group C)) was >2.00 and the absorbance values (antibodies to HIV-1 [7]; serum sample 3693 (group A)) was 0.559. For the same substance, the absorbance values (antibodies to HIV-1 [7]; serum sample 3722 (group A)) was 0.620, the absorbance values (antibodies to HIV-1 [7]; serum sample 3744 (group B)) was 0.311 and the absorbance values (antibodies to HIV-1 [7]; serum sample 3790 (group B)) was 0.224. The “competition with formula (I) peptide on the plate” value (antibodies to HIV-1 [1]; result in words) was “competed very effectively”, the “absorbance with competing peptide” value (antibodies to HIV-1 [1]; sample 013, unblocked 1.177) was 0.046 and the “absorbance with competing peptide” value (antibodies to HIV-1 [1]; sample 014, unblocked 0.383) was 0.067. The “absorbance with competing peptide” value (antibodies to HIV-1 [8]; sample 3412, unblocked 1.450) was 0.113, the “absorbance with competing peptide” value (antibodies to HIV-1 [8]; sample 3413, unblocked >2.00) was 0.381 and the “absorbance with competing peptide” value (antibodies to HIV-1 [8]; sample 3416, unblocked >2.00) was 1.811. The “absorbance with competing peptide” value (antibodies to HIV-1 [8]; sample 3544, unblocked 1.810) was 0.876, the “absorbance with competing peptide” value (antibodies to HIV-1 [8]; sample 3575, unblocked 1.267) was 0.982 and the “absorbance with competing peptide” value (antibodies to HIV-1 [8]; sample 3693, unblocked 0.340) was 0.103. For the same substance, the “absorbance with competing peptide” value (antibodies to HIV-1 [8]; sample 3790, unblocked 1.558) was 1.320.
